Assay results reported in patent publication US12344862B2, “Human intestinal epithelium model and method for preparing same” (KOREA RESEARCH INSTITUTE OF BIOSCIENCE AND BIOTECHNOLOGY, priority 2020, dated 2025).

Columns and labels:
[1] = system: Wnt pathway and the Notch pathway; test: qPCR of ATOH1, HES1, AXIN2, CTNNB1 during differentiation of hIEC progenitors into functional hIECs; format: cell-based, human; details: 2 μM Wnt-059 and 1 mM valproic acid together in hIEC differentiation medium 2; functional vs immature hIECs; FIG. 7
Text: To identify effects of Wnt-059 and valproic acid, which belong to the components of the hIEC differentiation medium 2 in Example 2, on the Wnt pathway and the Notch pathway during differentiation of hIEC progenitors into functional hIECs, expression levels of ATOH1, HES1, AXN2, and CTNNB1 genes in human small intestine (hSI) tissue, immature hIECs, and functional hIECs were checked through qPCR analysis. Here, inactivation of the Wnt pathway and activation of the Notch pathway inhibited differentiation of ISCs into secretory cells. qPCR was performed in the same manner as in Experimental Example 1, and the primers used are shown in Table 3 below.

[2] = in vitro; format: in vitro ADME, human; details: human
Experimental: (§1) The cells were prepared in the same manner as in Experimental Example 6.1. The functional hIECs and the Caco-2 cell line were washed 3 times with a transport buffer. […] The concentration of each compound in the sample was analyzed using LC-MS/MS. The apparent permeability coefficient was calculated according to the following equation. [formula] In the equation, dQ/dt, A, and C0 represent a transport rate, a surface area of the insert, and an initial concentration of the compound in the donor compartment, respectively. Chromatographic quantification of each compound was performed using an LC-tandem mass spectrometry system equipped with Shimadzu Prominence UPLC system (Shimadzu, Kyoto, Japan) and API 2000 QTRAP mass spectrometer (Applied Biosystems, Foster City, CA, USA). […] Then, an aliquot (10 μl) of the supernatant was injected directly into the LC-MS/MS system. Separation was performed using a Waters XTerra MS C18 column (2.1×50 mm, 5 μm, Milford, MA, USA) with a concentration gradient of 0.1% formic acid in acetonitrile and 0.1% formic acid in water at a flow rate of 0.4 ml/min. Transitions were made as follows to detect the analyte: […]

[3] = system: functional hIECs; test: in vitro; format: in vitro ADME, human; details: Caco-2
Experimental: as §1

[4] = system: Caco-2 cell line; test: in vitro; format: in vitro ADME, human
Experimental: as §1

[5] = system: hPSCs; test: qPCR of intestinal epithelial marker genes during differentiation of hPSCs into hIEC progenitors; format: cell-based, human; details: component of hIEC differentiation medium 1; FIG. 2
Experimental: In Example 1, to identify effects, on differentiation of the hPSCs into the hIEC progenitors, of R-spondin 1, which is an agonist of Wnt signaling, and insulin in composition of the hIEC differentiation medium 1, expression levels of marker genes related to intestinal epithelial cells were checked through qPCR analysis. Specifically, total RNA and cDNA were prepared using RNeasy kit (Qiagen) and Superscript IV cDNA synthesis kit (Thermo Fisher Scientific Inc.), respectively. qPCR was performed using a 7500 Fast real-time PCR system (Applied Biosystems, Foster City, CA, USA).

Molecule	Papp A→B at 2 h [2] [×10⁻⁶ cm/s]	Papp A→B at 2 h ([2]; Caco-2) [×10⁻⁶ cm/s]	further results
Cc1cc(-c2ccc(CC(=O)Nc3ccc(-c4cccnc4)cc3)cc2)ccn1 [Wnt-059, Wnt C-59]	–	–	effect on Wnt pathway and Notch pathway (qPCR of ATOH1, AXIN2, CTNNB1, HES1) [1]: inhibited the Wnt pathway and activated the Notch pathway
O=C(O)Cc1ccccc1Nc1c(Cl)cccc1Cl [diclofenac]	9.82 ± 0.04	36.2 ± 1.49	–
COCCc1ccc(OCC(O)CNC(C)C)cc1 (centres unmarked) [metoprolol]	11.1 ± 1.15	36.5 ± 1.09	–
CC(C)NCC(O)COc1cccc2ccccc12 (centres unmarked) [propranolol]	11 ± 1.28	32.3 ± 2.61	Fintestine (fraction absorbed in the human intestine) estimated from Papp [3]: 0.78; Fintestine (fraction absorbed in the human intestine) estimated from Papp [4]: 0.98
CNC(=C[N+](=O)[O-])NCCSCc1ccc(CN(C)C)o1 [ranitidine]	6.98 ± 0.66	0.98 ± 0.02	–
CCCC(CCC)C(=O)O [valproic acid]	–	–	effect on Wnt pathway and Notch pathway (qPCR of ATOH1, AXIN2, CTNNB1, HES1) [1]: inhibited the Wnt pathway and activated the Notch pathway
insulin: hormone secreted from beta cells of the islet of Langerhans; component of hIEC differentiation medium 1	–	–	effect on expression of intestinal epithelial marker genes (qPCR) [5]: increased expression of VIL1 and ANPEP
R-spondin 1: secreted protein encoded by Rspo1 gene, can promote Wnt/β catenin signals; agonist of Wnt signaling (protein, UniProt Q2MKA7 21-263, looked up) R-spondin-1: SRGIKGKRQRRISAEGSQACAKGCELCSEVNGCLKCSPKLFILLERNDIRQVGVCLPSCPPGYFDARNPDMNKCIKCKIEHCEACFSHNFCTKCKEGLYLHKGRCYPACPEGSSAANGTMECSSPAQCEMSEWSPWGPCSKKQQLCGFRRGSEERTRRVLHAPVGDHAACSDTKETRRCTVRRVPCPEGQKRRKGGQGRRENANRNLARKESKEAGAGSRRRKGQQQQQQQGTVGPLTSAGPA	–	–	effect on expression of intestinal epithelial marker genes (qPCR) [5]: increased expression of markers of major cell types in the intestinal epithelium
